Reference: patent publication US7973061B2, “Anaplastic lymphoma kinase modulators and methods of use” (Exelixis, Inc., priority 2004, dated 2011)
pIC50: −log10 of the molar value.

biological target: T1, ALK (baculovirus expressed human ALK kinase domain F1098-K1410) (Homo sapiens, UniProt Q9UM73); assay: biochemical; settings: 1 μM ATP, 4 μM poly-AEKY, 12 nM ALK, 2 hours at ambient temperature; read-out: ALK IC50
T1 construct: human ALK kinase domain F1098-K1410; made in house
Procedure, shortened: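 Baculovirus-expressed human ALK kinase domain (F1098-K1410) was run in a luciferase-coupled chemiluminescent format, with ATP near its KM. After 2 h at ambient temperature, remaining ATP was read by luciferase-luciferin luminescence. IC50 came from 10-point dose-response curves fitted to a four-parameter equation with Hill slope.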

T1 sequence (Q9UM73 1098-1410): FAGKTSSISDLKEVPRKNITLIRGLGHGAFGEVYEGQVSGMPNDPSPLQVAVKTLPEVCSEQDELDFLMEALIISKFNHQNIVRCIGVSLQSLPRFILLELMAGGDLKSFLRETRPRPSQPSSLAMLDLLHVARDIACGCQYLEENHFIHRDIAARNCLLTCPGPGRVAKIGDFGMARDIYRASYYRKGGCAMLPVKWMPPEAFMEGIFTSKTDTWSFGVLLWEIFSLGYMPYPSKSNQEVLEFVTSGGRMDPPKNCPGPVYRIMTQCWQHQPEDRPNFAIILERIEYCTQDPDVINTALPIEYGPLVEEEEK

Compound	pIC50
O=C(COc1ccc(OC(F)(F)F)cc1)NCc1nc(C(=O)NCCc2ccc(Br)cc2)cs1 [Entry 90, N-[2-(4-bromophenyl)ethyl]-2-({[({4-[(trifluoromethyl)oxy]phenyl}oxy)acetyl]amino}methyl)-1,3-thiazole-4-carboxamide]	6.30 to 7.30
O=C(COc1ccc(OC(F)(F)F)cc1)NCc1nc(C(=O)NCCc2ccc(F)cc2)co1 [Entry 201, N-[2-(4-fluorophenyl)ethyl]-2-({[({4-[(trifluoromethyl)oxy]phenyl}oxy)acetyl]amino}methyl)-1,3-oxazole-4-carboxamide]	6.30 to 7.30
COc1ccccc1CNC(=O)c1csc(CNC(=O)COc2ccc(C(C)C)cc2)n1 [Entry 118, 2-{[({[4-(1-methylethyl)phenyl]oxy}acetyl)amino]methyl}-N-{[2-(methyloxy)phenyl]methyl}-1,3-thiazole-4-carboxamide]	6.30 to 7.30
O=C(COc1ccc(OC(F)(F)F)cc1)NCc1nc(C(=O)N[C@H]2CCCc3ccccc32)cs1 [Entry 79, N-[(1S)-1,2,3,4-tetrahydronaphthalen-1-yl]-2-({[({4-[(trifluoromethyl)oxy]phenyl}oxy)acetyl]amino}methyl)-1,3-thiazole-4-carboxamide]	6.30 to 7.30
Cc1cc(Cl)ccc1CNC(=O)c1csc(CNC(=O)COc2ccc(OC(F)(F)F)cc2)n1 [Entry 150, N-[(4-chloro-2-methylphenyl)methyl]-2-({[({4-[(trifluoromethyl)oxy]phenyl}oxy)acetyl]amino}methyl)-1,3-thiazole-4-carboxamide]	6.30 to 7.30
O=C(NCCc1cccc(Cl)c1)c1csc(CNC(=O)c2cccnc2Oc2ccc(F)cc2)n1 [Entry 141, N-{[4-({[2-(3-chlorophenyl)ethyl]amino}carbonyl)-1,3-thiazol-2-yl]methyl}-2-[(4-fluorophenyl)oxy]pyridine-3-carboxamide]	6.30 to 7.30
CCOc1cccc(CCNC(=O)c2csc(CNC(=O)COc3ccc(OC(F)(F)F)cc3)n2)c1 [Entry 28, N-{2-[3-(ethyloxy)phenyl]ethyl}-2-({[({4-[(trifluoromethyl)oxy]phenyl}oxy)acetyl]amino}methyl)-1,3-thiazole-4-carboxamide]	6.30 to 7.30
CCCCC(CC)CNC(=O)c1csc(CNC(=O)COc2ccc(OC(F)(F)F)cc2)n1 (centres unmarked) [Entry 200, N-(2-ethylhexyl)-2-({[({4-[(trifluoromethyl)oxy]phenyl}oxy)acetyl]amino}methyl)-1,3-thiazole-4-carboxamide]	6.30 to 7.30
O=C(COc1ccc(OC(F)(F)F)cc1)NCc1nc(C(=O)NCC2CCCCC2)cs1 [Entry 172, N-(cyclohexylmethyl)-2-({[({4-[(trifluoromethyl)oxy]phenyl}oxy)acetyl]amino}methyl)-1,3-thiazole-4-carboxamide]	6.30 to 7.30
O=C(COc1ccc(OC(F)(F)F)cc1)NCc1nc(C(=O)NCCN2CCOCC2)cs1 [Entry 205, N-(2-morpholin-4-ylethyl)-2-({[({4-[(trifluoromethyl)oxy]phenyl}oxy)acetyl]amino}methyl)-1,3-thiazole-4-carboxamide]	6.30 to 7.30
CC(NC(=O)c1csc(CNC(=O)COc2ccc(OC(F)(F)F)cc2)n1)c1ccc(F)cc1 (centres unmarked) [Entry 86, N-[1-(4-fluorophenyl)ethyl]-2-({[({4-[(trifluoromethyl)oxy]phenyl}oxy)acetyl]amino}methyl)-1,3-thiazole-4-carboxamide]	6.30 to 7.30
O=C(COc1ccc(OC(F)(F)F)cc1)NCc1nc(C(=O)NCCc2cccc(F)c2)co1 [Entry 148, N-[2-(3-fluorophenyl)ethyl]-2-({[({4-[(trifluoromethyl)oxy]phenyl}oxy)acetyl]amino}methyl)-1,3-oxazole-4-carboxamide]	6.30 to 7.30
COc1cccc(OC)c1CNC(=O)c1csc(CNC(=O)COc2ccc(OC(F)(F)F)cc2)n1 [Entry 106, N-{[2,6-bis(methyloxy)phenyl]methyl}-2-({[({4-[(trifluoromethyl)oxy]phenyl}oxy)acetyl]amino}methyl)-1,3-thiazole-4-carboxamide]	6.30 to 7.30
O=C(COc1ccc(OC(F)(F)F)cc1)NCc1nc(C(=O)NCCc2cccc(Cl)c2)cs1 [Entry 2, N-[2-(3-chlorophenyl)ethyl]-2-({[({4-[(trifluoromethyl)oxy]phenyl}oxy)acetyl]amino}methyl)-1,3-thiazole-4-carboxamide]	> 7.30
C[C@@H](NC(=O)c1csc(CNC(=O)COc2ccc(OC(F)(F)F)cc2)n1)C(C)(C)C [Entry 233, 2-({[({4-[(trifluoromethyl)oxy]phenyl}oxy)acetyl]amino}methyl)-N-[(1R)-1,2,2-trimethylpropyl]-1,3-thiazole-4-carboxamide]	5.70 to 6.30
O=C(COc1ccc(OC(F)(F)F)cc1)NCc1nc(C(=O)NCCC2=CCCCC2)cs1 [Entry 35, N-(2-cyclohex-1-en-1-ylethyl)-2-({[({4-[(trifluoromethyl)oxy]phenyl}oxy)acetyl]amino}methyl)-1,3-thiazole-4-carboxamide]	6.30 to 7.30
O=C(COc1ccc(OC(F)(F)F)cc1)NCc1nc(C(=O)NCc2ccc(F)cc2F)cs1 [Entry 258, N-[(2,4-difluorophenyl)methyl]-2-({[({4-[(trifluoromethyl)oxy]phenyl}oxy)acetyl]amino}methyl)-1,3-thiazole-4-carboxamide]	5.70 to 6.30
CCOc1cc(CCNC(=O)c2csc(CNC(=O)COc3ccc(OC(F)(F)F)cc3)n2)ccc1OC [Entry 20, N-{2-[3-(ethyloxy)-4-(methyloxy)phenyl]ethyl}-2-({[({4-[(trifluoromethyl)oxy]phenyl}oxy)acetyl]amino}methyl)-1,3-thiazole-4-carboxamide]	> 7.30

Other lines, results leading:

pIC50	Compound
6.30 to 7.30	O=C(COc1ccc(OC(F)(F)F)cc1)NCc1nc(C(=O)NCc2ccc(Cl)c(C(F)(F)F)c2)cs1 [Entry 73, N-{[4-chloro-3-(trifluoromethyl)phenyl]methyl}-2-({[({4-[(trifluoromethyl)oxy]phenyl}oxy)acetyl]amino}methyl)-1,3-thiazole-4-carboxamide]
5.70 to 6.30	O=C(COc1ccc(OC(F)(F)F)cc1)NCc1nc(C(=O)NCCCN2CCOCC2)cs1 [Entry 267, N-(3-morpholin-4-ylpropyl)-2-({[({4-[(trifluoromethyl)oxy]phenyl}oxy)acetyl]amino}methyl)-1,3-thiazole-4-carboxamide]
> 7.30	CC(C)c1ccc(NC(=O)NCc2nc(C(=O)NCCc3ccccc3F)cs2)cc1 [Entry 27, N-[2-(2-fluorophenyl)ethyl]-2-{[({[4-(1-methylethyl)phenyl]amino}carbonyl)amino]methyl}-1,3-thiazole-4-carboxamide]
6.30 to 7.30	CC(C)CCNC(=O)c1csc(CNC(=O)COc2ccc(OC(F)(F)F)cc2)n1 [Entry 138, N-(3-methylbutyl)-2-({[({4-[(trifluoromethyl)oxy]phenyl}oxy)acetyl]amino}methyl)-1,3-thiazole-4-carboxamide]
> 7.30	Cc1ccccc1CCNC(=O)c1csc(CNC(=O)COc2ccc(OC(F)(F)F)cc2)n1 [Entry 15, N-[2-(2-methylphenyl)ethyl]-2-({[({4-[(trifluoromethyl)oxy]phenyl}oxy)acetyl]amino}methyl)-1,3-thiazole-4-carboxamide]
6.30 to 7.30	O=C(COc1ccc(OC(F)(F)F)cc1)NCc1nc(C(=O)NCc2c(Cl)cccc2Oc2ccccc2)cs1 [Entry 163, N-{[2-chloro-6-(phenyloxy)phenyl]methyl}-2-({[({4-[(trifluoromethyl)oxy]phenyl}oxy)acetyl]amino}methyl)-1,3-thiazole-4-carboxamide]
5.70 to 6.30	COc1ccccc1CNC(=O)c1csc(CNC(=O)C/C=C/c2ccccc2)n1 [Entry 284, N-{[2-(methyloxy)phenyl]methyl}-2-({[(3E)-4-phenylbut-3-enoyl]amino}methyl)-1,3-thiazole-4-carboxamide]
6.30 to 7.30	O=C(Cc1ccc2ccccc2c1)NCc1nc(C(=O)NCCc2ccccc2F)cs1 [Entry 169, N-[2-(2-fluorophenyl)ethyl]-2-{[(naphthalen-2-ylacetyl)amino]methyl}-1,3-thiazole-4-carboxamide]
6.30 to 7.30	O=C(COc1ccc(OC(F)(F)F)cc1)NCc1nc(C(=O)NCc2cc(C(F)(F)F)ccc2Cl)cs1 [Entry 97, N-{[2-chloro-5-(trifluoromethyl)phenyl]methyl}-2-({[({4-[(trifluoromethyl)oxy]phenyl}oxy)acetyl]amino}methyl)-1,3-thiazole-4-carboxamide]
5.70 to 6.30	CCOc1cccc(CCNC(=O)c2coc(CNC(=O)COc3ccc(OC(F)(F)F)cc3)n2)c1 [Entry 230, N-{2-[3-(ethyloxy)phenyl]ethyl}-2-({[({4-[(trifluoromethyl)oxy]phenyl}oxy)acetyl]amino}methyl)-1,3-oxazole-4-carboxamide]
> 7.30	CC(C)c1ccc(NC(=O)NCc2nc(C(=O)NCCc3cccc(Cl)c3)cs2)cc1 [Entry 25, N-[2-(3-chlorophenyl)ethyl]-2-{[({[4-(1-methylethyl)phenyl]amino}carbonyl)amino]methyl}-1,3-thiazole-4-carboxamide]
6.30 to 7.30	O=C(COc1ccc(OC(F)(F)F)cc1)NCc1nc(C(=O)N[C@@H]2C[C@H]3CC[C@@H]2C3)cs1 [Entry 105, N-[(1R,2R,4S)-bicyclo[2.2.1]hept-2-yl]-2-({[({4-[(trifluoromethyl)oxy]phenyl}oxy)acetyl]amino}methyl)-1,3-thiazole-4-carboxamide]
5.70 to 6.30	CC(=O)NCCNC(=O)c1csc(CNC(=O)COc2ccc(OC(F)(F)F)cc2)n1 [Entry 281, N-[2-(acetylamino)ethyl]-2-({[({4-[(trifluoromethyl)oxy]phenyl}oxy)acetyl]amino}methyl)-1,3-thiazole-4-carboxamide]
5.70 to 6.30	O=C(COc1ccc(OC(F)(F)F)cc1)NCc1nc(C(=O)NC(Cc2ccccc2)c2ccccc2)cs1 (centres unmarked) [Entry 222, N-(1,2-diphenylethyl)-2-({[({4-[(trifluoromethyl)oxy]phenyl}oxy)acetyl]amino}methyl)-1,3-thiazole-4-carboxamide]
